Laboratory results from ChEMBL document CHEMBL3414510 (J Med Chem, 2015).

What was measured:
Liver = test: Metabolic stability in CD1 mouse liver microsomes after 30 mins by LC/MS analysis; assay type: ADME; details: 0.5 h
[1] = Permeability across human Caco2 cells; assay type: ADME, cell-based; details: caco-2
Mus musculus = test: Clearance in Balb/C mouse at 5 mg/kg, iv and po relative to liver blood flow; assay type: ADME, organism-based; set-up: dose 5 mg/kg, route oral; details: in vivo

Q: For `Cn1cc(CCn2cnc(-c3cnn(C)c3)c2-c2ccc(C#N)cc2)cn1`, which Stability (Liver) is on record?
A: Stable

Q: And the permeability [1]?
A: permeable

Q: And the CL (Mus musculus)?
A: 50%
